The values that follow come from patent publication US11427586B2, “1,2,4-oxadiazole derivatives as liver X receptor agonists” (NOVARTIS AG, priority 2019, dated 2022).

pEC50: −log10 of the molar value. Where two headings read alike, the source gives them in different places.

One assay deals with SZ95 sebocytes. Put plainly: Sentinel Lipid Assay (SLA), desaturation index in SZ95 sebocytes. The settings on record: Homo sapiens, 72 h; for pEC50: desaturation index, lowest dose used 4.6 nM, read-out: SLA EC50. In kind it is cell-based. The procedure, abridged: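 SZ95 human sebocytes on fibronectin-coated plates, dosed 72 h at 37 °C with 1:3 dilutions from 10 μM; lipids extracted with deuterated triglyceride internal standards and quantified by LC-MS/MS (MRM) as 11 sentinel lipids. Desaturation index from elastic-net coefficients, normalized to DMSO; Amax relative to a reference LXR agonist.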

Assay [1] has as its system naive Sprague Dawley rats. Put plainly: In vivo measurement of lowered meibum melting temperature. Set-up: species or system rat. Particulars: for Change of Tm: meibum melting point versus vehicle, 1% suspension eye drops twice a day for fourteen days, rats; for meibum melting temperature (in words): rat eyes, concentration of 1%; for Mean ± SEM of Compound (meibum melting point): rat meibum, DSC peak temperature, 1% suspension as eye drops twice a day for fourteen days, in °C. Here is the method:
In Vivo Measurement of Lowered Meibum Melting Temperature
For compounds 8 and 57, the lowering of rat meibum melting temperature was measured in naive Sprague Dawley rats. The test animals were administered either vehicle, or a suspension of 1% of compound 8 or 1% of compound 57, as eye drops twice a day for fourteen days. The rat meibum was collected after administration of the compounds and analyzed by differential scanning calorimetry to measure the melting point. The lowering of meibum melting point in rats administered compound 8 or compound 57 was compared to the vehicle.
Melting properties of meibum were obtained using differential scanning calorimetry thermograms, recorded on a TA Discovery Q5000 (ThermoAnalytical). Samples were sealed in standard 40 μl aluminum pans and subjected to a heat-cool-heat cycle with melting temperatures being recorded on the second heating ramp. The samples were first heated to 150° C. at 30K/min then cooled −30° C. at 30K/min. Next, the sample was heated to 75° C. with an underlying heating rate of 2K/min, a period of modulation of 60 seconds and a temperature amplitude of modulation of 1° C. Dry N2 gas, at a flow rate of 50 mL/min was used to purge the DSC equipment during the measurement. Onset of melting and peak temperatures were recorded with peak temperature quoted as the melting point.
Results from the assay are shown Table 3 and in FIG. 4. Results were analyzed using an unpaired t test with Welch's correction.
On the technique in general: Differential scanning calorimetry records heat flow against a reference as temperature is scanned.

The test system of a further assay is SCD1. Put plainly: Measurement of SCD1 expression in SZ95-SCD1-HiBit cells (HiBiT assay). In kind it is cell-based. Particulars: Homo sapiens, 48 h; for pEC50: SCD1 protein production, luminescence, initial dilution 1:3 in DMSO, read-out: HiBit EC50. In general terms: The HiBiT peptide binds its large partner to form an active luciferase.
The mark [2] stands for this setting: normalized Amax based on the reference compound Amax of 100%, read-out: SLA Normalized Amax.
Where [3] appears, read: SZ95 cells, compared to reference compound, read-out: SLA Amax.
Setting [4] is: normalized Amax based on the reference compound Amax of 100%, read-out: HiBit Normalized Amax.
The mark [5] stands for this setting: SZ95-SCD1-HiBit cells, compared to reference compound, read-out: HiBit Amax.

As a reminder, the pEC50 is the EC50 on a negative log10 scale, so that one unit is a factor of ten.

On to `CC(C)CS(=O)(=O)c1ccccc1Oc1ccc(-c2noc(CN3C(=O)N(CCN4CCOCC4)C(C)(C)C3=O)n2)cc1C(F)(F)F` [Compound 57, 3-((3-(4-(2-(isobutylsulfonyl)phenoxy)-3-(trifluoromethyl)phenyl)-1,2,4-oxadiazol-5-yl)methyl)-5,5-dimethyl-1-(2-morpholinoethyl)imidazolidine-2,4-dione], for which the Emax in the assay with SZ95 sebocytes (setting [2]) turned out to be 176%; with SZ95 sebocytes (setting [3]), 169%; in the assay with SCD1 (setting [4]) it was 88.4%; in the assay with SCD1 (setting [5]), 84.1%. The negative logarithm of the EC50 (pEC50) in the assay on SZ95 sebocytes (SZ95 cells) was no less than 8.34; with SCD1 (SZ95-SCD1-HiBit cells), 9.66. Also, the “Change of Tm” value in assay [1] is reported as −2.181 ± 0.3731. Moreover, in assay [1], the “meibum melting temperature (in words)” value was “decrease”. In addition, the “Mean ± SEM of Compound (meibum melting point)” value in assay [1] was 28.08 ± 0.2945.

On to `CC(C)CS(=O)(=O)c1ccccc1Oc1ccc(-c2noc(CN3C(=O)N(CCN4CCOCC4)C4(CCN(C5CCC5)CC4)C3=O)n2)cc1C(F)(F)F` [Compound 8, 8-cyclobutyl-3-((3-(4-(2-(isobutylsulfonyl)phenoxy)-3-(trifluoromethyl)phenyl)-1,2,4-oxadiazol-5-yl)methyl)-1-(2-morpholinoethyl)-1,3,8-triazaspiro[4.5]decane-2,4-dione], for which the Emax with SZ95 sebocytes (setting [2]) is 230%; in the assay with SZ95 sebocytes (setting [3]) it was 221%; in the assay on SCD1 (setting [4]) it was 120%; in the assay with SCD1 (setting [5]), 114%. The pEC50 is no less than 8.34 with SZ95 sebocytes (SZ95 cells) and 9.95 with SCD1 (SZ95-SCD1-HiBit cells). Further, the “Change of Tm” value in assay [1] is −1.977 ± 0.3731. The “meibum melting temperature (in words)” value in assay [1] was “decrease”. Moreover, the “Mean ± SEM of Compound (meibum melting point)” value in assay [1] is 28.29 ± 0.2920.

With `CC(C)(C)c1ccccc1Oc1ccc(-c2noc(CN3C(=O)N(CCC4CCOCC4)C4(CCN(C5CCC5)CC4)C3=O)n2)cc1C(F)(F)F` [Compound 7, 3-((3-(4-(2-(tert-butyl)phenoxy)-3-(trifluoromethyl)phenyl)-1,2,4-oxadiazol-5-yl)methyl)-8-cyclobutyl-1-(2-(tetrahydro-2H-pyran-4-yl)ethyl)-1,3,8-triazaspiro[4.5]decane-2,4-dione], the Emax was determined as 110% in the assay with SZ95 sebocytes (setting [2]), 105% in the assay with SZ95 sebocytes (setting [3]), 90% with SCD1 (setting [4]) and 85.6% with SCD1 (setting [5]). Further, the negative-log EC50 (pEC50) was no less than 8.34 with SZ95 sebocytes (SZ95 cells) and 9.89 with SCD1 (SZ95-SCD1-HiBit cells).
